Experimental data: PMC10539501 (Nature Communications, 2023)
Each block holds one compound with its values, some of them ahead of it. Starred links: 1 amine or outer side, 2 acyl side, 3 side chain; linkers in the order of their positions; H or OH if unused. Non-standard residues stand in square brackets, D forms with d. Residues, ends and D or L forms follow the SMILES beside them. X5 = CC(C)C[C@H](NC(=S)[C@H](CC(C)C)N[*:1])C(=O)[*:2]; X20 = C[C@H](NC(=S)[C@@H](C)N[*:1])C(=O)[*:2]; NMeY = CN[C@@H](Cc1ccc(O)cc1)C(=O)O; NMeL = CN[C@@H](CC(C)C)C(=O)O; dNMeL = CN[C@H](CC(C)C)C(=O)O

Legend:
[1] = Octanol-water distribution coefficient (logD7.4); conditions: octanol/water, pH 7.4
[2] = PAMPA passive permeability; format: in vitro ADME;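 further: passive permeability across an artificial membrane in 96-well pre-coated PAMPA plates, which lack transporters and efflux systems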
Method: Encouraged by this, the passive permeability of the analogs was evaluated using an artificial membrane (PAMPA), which measures permeability of compounds in the absence of transporters and efflux systems[32].
96-well BD Corning® pre-coated PAMPA plates were used following the supplier’s protocol, details in Supplementary Information.

[3] = tested on: human liver microsomes
Method: (§1) A stability assessment of the peptides was done in simulated gastric (SGF) and intestinal (SIF) fluids and human liver microsomes. The degradation kinetics of the aliquoted samples at desired time points were analyzed through RP-HPLC.

[4] = physchem; conditions: pH 7.4
[5] = in vitro; conditions: both, human, plasma
[6] = target: pepsin (Sus scrofa, UniProt P00791); experiment: in vitro; conditions: simulated gastric fluid, pH 1.2
pepsin, sequence (P00791 60-385): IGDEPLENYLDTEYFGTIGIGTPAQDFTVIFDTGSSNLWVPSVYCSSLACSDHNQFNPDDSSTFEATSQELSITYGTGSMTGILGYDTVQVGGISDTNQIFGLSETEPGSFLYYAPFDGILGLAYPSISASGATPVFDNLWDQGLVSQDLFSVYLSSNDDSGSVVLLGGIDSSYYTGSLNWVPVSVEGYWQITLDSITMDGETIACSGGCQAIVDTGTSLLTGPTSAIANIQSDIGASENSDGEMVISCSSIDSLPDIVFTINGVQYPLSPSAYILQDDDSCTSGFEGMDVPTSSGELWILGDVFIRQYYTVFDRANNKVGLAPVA
Method: as §1

[7] = in vitro; conditions: pig, simulated intestinal fluid
[8] = in vitro; conditions: human, microsomes
Method: as §1

[9] = in vitro; conditions: both, human, plasma; remark: listed apart in the source
Method: Blood was freshly drawn from three healthy adults, two male and one person of 26–28 year old. […] The plasma was separated by centrifugation. […] For checking metabolic stability, the required volume of plasma was pre-incubated at 37 °C prior to the experiment for 2 min, followed by spiking with the peptides. At different time points, plasma was aliquoted. The supernatant was separated and used for RP-HPLC quantification. Rapid Equilibrium Dialysis (RED) assay was performed to assess the plasma protein binding of the peptides following the supplier’s protocol.

[10] = format: physicochemical
From the text: Since reduced solvation of S also contributes to the lipophilicity of the thioamidated peptides, we sought to estimate the global desolvation of the macrocyclic peptides, which is affected by solvation of both N(H) and C(S). […] Thus, we evaluated the desolvation potential of the cyclic peptides by determining the distribution coefficients in heptane-ethylene glycol (logDh/e), a solvent system that provides an experimental estimate of desolvation or hydrogen bond potential[38].

[11] = format: physicochemical; remark: listed apart in the source

Compound: C[C@@H]1NC(=O)[C@H](C)NC(=O)[C@H](C)NC(=O)[C@@H](C)NC(=O)[C@H](C)NC1=O [compound 8, cyclo(-D-Ala-L-Ala4-)]
logD [1]: -1.46

Compound: C[C@@H]1NC(=O)[C@H](C)NC(=S)[C@H](C)NC(=O)[C@H](C)NC(=O)[C@@H](C)NC1=O [8c]
logD [1]: -0.19

Compound: C[C@@H]1NC(=O)[C@H](C)NC(=S)[C@H](C)NC(=O)[C@@H](C)NC(=O)[C@H](C)NC1=O [8b]
logD [1]: -0.14

Compound: C[C@@H]1NC(=O)[C@H](C)NC(=O)[C@@H](C)NC(=S)[C@H](C)NC(=O)[C@H](C)NC1=O [8e]
logD [1]: -0.14

Compound: C[C@@H]1NC(=O)[C@H](C)NC(=O)[C@H](C)NC(=S)[C@@H](C)NC(=O)[C@H](C)NC1=O [8a]
logD [1]: -0.32

Compound: C[C@@H]1NC(=O)[C@H](C)NC(=O)[C@@H](C)NC(=O)[C@H](C)NC(=S)[C@H](C)NC1=O [8d]
logD [1]: -0.23

Compound: C[C@@H]1NC(=O)[C@H](C)NC(=O)[C@H](C)NC(=O)[C@@H](C)NC(=O)[C@H](C)NC(=O)[C@H](C)NC1=O [compound 9, cyclo(-D-Ala-L-Ala5-)]
logD [1]: -2.48

Further lines, results first:

logD [1]: -0.59
Compound: C[C@@H]1NC(=O)[C@H](C)NC(=S)[C@H](C)NC(=O)[C@H](C)NC(=O)[C@@H](C)NC(=O)[C@H](C)NC1=O [9c]

Papp ([2]; Pe Avg): 2.75 ×10⁻⁶ cm/s | Half lives [3]: 16.8 | logD [4]: 1.01 | fraction unbound [5]: 0.35 | half-life [6]: 0.325 h | remaining at 2 min [6]: 85% | remaining at 10 min [6]: 65% | remaining at 20 min [6]: 45% | remaining at 0.5 h [6]: 38% | remaining at 1 h [6]: 24% | remaining at 2 h [6]: 9% | remaining at 4 h [6]: 0% | remaining at 8 h [6]: 0% | remaining at 12 h [6]: 0% | half-life [7]: 0.333 h | remaining at 10 min [7]: 67% | remaining at 0.5 h [7]: 41% | remaining at 1 h [7]: 22% | remaining at 2 h [7]: 10% | remaining at 4 h [7]: 0% | remaining at 8 h [7]: 0% | remaining at 12 h [7]: 0% | microsomal CLint [8]: 83 µL/min/mg | remaining at 2 min [8]: 89% | remaining at 10 min [8]: 67% | remaining at 20 min [8]: 41% | remaining at 0.5 h [8]: 25% | remaining at 0.75 h [8]: 16% | remaining at 1 h [8]: 8% | half-life [9]: 15 h | remaining at 2 h [9]: 92% | remaining at 4 h [9]: 83% | remaining at 8 h [9]: 69% | remaining at 16 h [9]: 51% | remaining at 24 h [9]: 28% | remaining at 48 h [9]: 22% | remaining at 72 h [9]: 13%
Compound: CC(C)C[C@@H]1NC(=O)[C@@H](CC(C)C)N(C)C(=O)[C@H](CC(C)C)NC(=O)[C@H](Cc2ccc(O)cc2)NC(=O)[C@H]2CCCN2C(=O)[C@H](CC(C)C)NC1=O [10g] (cyclo(LL[dP]YL[dNMeL]))

logD [1]: -0.7
Compound: C[C@@H]1NC(=O)[C@H](C)NC(=O)[C@H](C)NC(=S)[C@H](C)NC(=O)[C@@H](C)NC(=O)[C@H](C)NC1=O [9b]

Papp ([2]; Pe Avg): 4.59 ×10⁻⁶ cm/s | Half lives [3]: 28.7 | logD [4]: 0.98 | fraction unbound [5]: 0.21 | half-life [6]: 0.367 h | remaining at 2 min [6]: 86% | remaining at 10 min [6]: 78% | remaining at 20 min [6]: 59% | remaining at 0.5 h [6]: 32% | remaining at 1 h [6]: 10% | remaining at 2 h [6]: 1% | remaining at 4 h [6]: 0% | remaining at 8 h [6]: 0% | remaining at 12 h [6]: 0% | half-life [7]: 0.583 h | remaining at 10 min [7]: 70% | remaining at 0.5 h [7]: 58% | remaining at 1 h [7]: 38% | remaining at 2 h [7]: 21% | remaining at 4 h [7]: 4.54% | remaining at 8 h [7]: 0.525% | remaining at 12 h [7]: 0% | microsomal CLint [8]: 49 µL/min/mg | remaining at 2 min [8]: 91% | remaining at 10 min [8]: 77% | remaining at 20 min [8]: 73% | remaining at 0.5 h [8]: 46% | remaining at 0.75 h [8]: 35% | remaining at 1 h [8]: 9% | half-life [9]: 11 h | remaining at 2 h [9]: 75% | remaining at 4 h [9]: 61% | remaining at 8 h [9]: 56% | remaining at 16 h [9]: 38% | remaining at 24 h [9]: 25% | remaining at 48 h [9]: 9% | remaining at 72 h [9]: 4%
Compound: CC(C)C[C@@H]1NC(=O)[C@@H](CC(C)C)NC(=O)[C@H](CC(C)C)NC(=O)[C@H](Cc2ccc(O)cc2)N(C)C(=O)[C@H]2CCCN2C(=O)[C@H](CC(C)C)NC1=O [10j] (cyclo(LL[dP][NMeY]L[dL]))

logD [1]: -0.67
Compound: C[C@@H]1NC(=O)[C@H](C)NC(=O)[C@@H](C)NC(=O)[C@H](C)NC(=O)[C@H](C)NC(=S)[C@H](C)NC1=O [9d]

Papp ([2]; Pe): 1.51 ×10⁻⁶ cm/s | logD heptane ethylene glycol [10]: -0.91 | logD [4]: -0.93 | fraction unbound [5]: 0.05 | half-life [9]: 16 h
Compound: C[C@@H](O)[C@@H]1NC(=O)[C@H](CCCCN)NC(=O)[C@@H](Cc2c[nH]c3ccccc23)NC(=S)[C@H](Cc2ccccc2)NC(=O)[C@@H]2CCCN2C(=O)[C@H](Cc2ccccc2)NC1=O [13f]

% solubility [11]: 26% | Pe Avg [2]: 4.3 ×10⁻⁶ cm/s | Pe set1 [2]: 4.84 ×10⁻⁶ cm/s | Pe set2 [2]: 3.05 ×10⁻⁶ cm/s | Pe set3 [2]: 5.14 ×10⁻⁶ cm/s | Papp ([2]; Pe Avg): 4.3 ×10⁻⁶ cm/s | logD heptane ethylene glycol [10]: 0.62 | Half lives [3]: 19.0 | logD [4]: 1.42 | fraction unbound [5]: 0.31 | half-life [6]: 0.283 h | remaining at 5 min [6]: 72% | remaining at 10 min [6]: 57% | remaining at 20 min [6]: 47% | remaining at 0.5 h [6]: 38% | remaining at 1 h [6]: 33% | remaining at 2 h [6]: 27% | remaining at 4 h [6]: 23% | remaining at 8 h [6]: 17% | remaining at 12 h [6]: 10% | remaining at 24 h [6]: 5% | half-life [7]: 1.6 h | remaining at 10 min [7]: 71.7% | remaining at 0.5 h [7]: 53.6% | remaining at 1 h [7]: 47.1% | remaining at 2 h [7]: 39% | remaining at 4 h [7]: 32.1% | remaining at 8 h [7]: 26.6% | remaining at 12 h [7]: 16.6% | remaining at 24 h [7]: 10.3% | microsomal CLint [8]: 73 µL/min/mg | remaining at 5 min [8]: 85% | remaining at 10 min [8]: 65% | remaining at 20 min [8]: 49% | remaining at 0.5 h [8]: 34% | remaining at 0.75 h [8]: 28% | remaining at 1 h [8]: 15% | half-life [9]: 23 h | remaining at 1 h [9]: 91% | remaining at 3 h [9]: 85% | remaining at 5 h [9]: 80% | remaining at 7 h [9]: 76% | remaining at 9 h [9]: 74% | remaining at 12 h [9]: 59% | remaining at 24 h [9]: 47% | remaining at 36 h [9]: 33% | remaining at 48 h [9]: 25% | remaining at 60 h [9]: 15% | remaining at 72 h [9]: 7%
Compound: CC(C)C[C@@H]1NC(=O)[C@H](Cc2ccc(O)cc2)NC(=O)[C@H]2CCCN2C(=O)[C@H](CC(C)C)NC(=S)[C@H](CC(C)C)NC(=O)[C@@H](CC(C)C)NC1=O [10b] (cyclo(L[dL][X5][dP]Y))

logD [1]: -0.54
Compound: C[C@@H]1NC(=O)[C@H](C)NC(=O)[C@@H](C)NC(=O)[C@H](C)NC(=S)[C@H](C)NC(=O)[C@H](C)NC1=O [9e]

Papp ([2]; Pe Avg): 3.2 ×10⁻⁶ cm/s | Half lives [3]: 12.6 | logD [4]: 1.11 | fraction unbound [5]: 0.38 | half-life [6]: 0.292 h | remaining at 2 min [6]: 86% | remaining at 10 min [6]: 58% | remaining at 20 min [6]: 47% | remaining at 0.5 h [6]: 30% | remaining at 1 h [6]: 17% | remaining at 2 h [6]: 11% | remaining at 4 h [6]: 5% | remaining at 8 h [6]: 2.5% | remaining at 12 h [6]: 1% | half-life [7]: 1.83 h | remaining at 10 min [7]: 90% | remaining at 0.5 h [7]: 81% | remaining at 1 h [7]: 68% | remaining at 2 h [7]: 46% | remaining at 4 h [7]: 32% | remaining at 8 h [7]: 6% | remaining at 12 h [7]: 3% | microsomal CLint [8]: 113 µL/min/mg | remaining at 2 min [8]: 93% | remaining at 10 min [8]: 54% | remaining at 20 min [8]: 53% | remaining at 0.5 h [8]: 19% | remaining at 0.75 h [8]: 12% | remaining at 1 h [8]: 2.73% | half-life [9]: 19 h | remaining at 2 h [9]: 92% | remaining at 4 h [9]: 83% | remaining at 8 h [9]: 74% | remaining at 16 h [9]: 58% | remaining at 24 h [9]: 38% | remaining at 48 h [9]: 26% | remaining at 72 h [9]: 4%
Compound: CC(C)C[C@@H]1NC(=O)[C@H](Cc2ccc(O)cc2)NC(=O)[C@H]2CCCN2C(=O)[C@H](CC(C)C)N(C)C(=O)[C@H](CC(C)C)NC(=O)[C@@H](CC(C)C)NC1=O [10i] (cyclo(L[NMeL][dP]YL[dL]))

logD [1]: -0.67
Compound: C[C@@H]1NC(=O)[C@H](C)NC(=O)[C@H](C)NC(=S)[C@@H](C)NC(=O)[C@H](C)NC(=O)[C@H](C)NC1=O [9a] (cyclo([X20]AAAA))

logD [1]: -0.24
Compound: C[C@@H]1NC(=O)[C@H](C)NC(=O)[C@H](C)NC(=O)[C@@H](C)NC(=S)[C@H](C)NC(=O)[C@H](C)NC1=O [9f]
